From patent publication US20240400564A1 (Syndax Pharmaceuticals, Inc, priority 2021, published 2024)

Biological target: hERG (Homo sapiens, UniProt Q12809)
Test: Patch clamp assay (hERG tail currents, whole-cell)

hERG, sequence (Q12809 whole entry): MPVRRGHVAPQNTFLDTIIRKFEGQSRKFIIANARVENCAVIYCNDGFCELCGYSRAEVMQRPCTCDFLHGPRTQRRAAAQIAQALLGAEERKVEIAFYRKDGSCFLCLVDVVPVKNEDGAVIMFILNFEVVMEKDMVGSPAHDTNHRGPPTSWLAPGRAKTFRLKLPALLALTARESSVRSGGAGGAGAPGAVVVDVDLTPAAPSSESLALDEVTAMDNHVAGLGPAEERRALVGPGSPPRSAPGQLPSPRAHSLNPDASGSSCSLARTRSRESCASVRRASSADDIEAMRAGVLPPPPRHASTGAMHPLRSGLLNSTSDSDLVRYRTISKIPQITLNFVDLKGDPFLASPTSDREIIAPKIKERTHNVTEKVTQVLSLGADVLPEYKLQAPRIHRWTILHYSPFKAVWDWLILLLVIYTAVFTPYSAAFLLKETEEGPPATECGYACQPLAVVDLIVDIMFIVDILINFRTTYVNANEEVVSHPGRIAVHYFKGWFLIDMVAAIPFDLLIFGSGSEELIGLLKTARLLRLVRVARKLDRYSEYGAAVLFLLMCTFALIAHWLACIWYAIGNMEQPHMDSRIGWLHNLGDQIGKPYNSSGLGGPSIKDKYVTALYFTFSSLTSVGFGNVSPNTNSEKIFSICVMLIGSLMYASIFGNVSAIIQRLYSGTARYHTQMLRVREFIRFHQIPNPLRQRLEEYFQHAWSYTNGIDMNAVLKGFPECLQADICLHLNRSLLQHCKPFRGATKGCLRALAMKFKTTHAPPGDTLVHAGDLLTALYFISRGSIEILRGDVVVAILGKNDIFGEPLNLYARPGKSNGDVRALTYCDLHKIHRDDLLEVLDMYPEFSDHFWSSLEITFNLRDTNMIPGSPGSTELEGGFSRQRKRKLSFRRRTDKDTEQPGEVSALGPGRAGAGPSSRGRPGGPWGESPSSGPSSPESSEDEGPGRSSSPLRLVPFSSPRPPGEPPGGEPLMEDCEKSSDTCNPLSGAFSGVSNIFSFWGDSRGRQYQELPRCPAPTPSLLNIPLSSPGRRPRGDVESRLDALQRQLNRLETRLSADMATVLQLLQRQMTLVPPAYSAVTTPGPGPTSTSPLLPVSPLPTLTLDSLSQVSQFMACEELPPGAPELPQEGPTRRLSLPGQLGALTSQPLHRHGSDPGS

Row | SMILES | hERG % Remaining (30 μM compound) | hERG % Remaining (10 μM compound) | hERG IC50 (μM) (hERG stably transfected HEK 293 cells)
1 | C[C@@H]1COC[C@@H](C)N1C(=O)c1cc(F)ccc1Oc1cncnc1N1CC2(CCN(C[C@@H]3CC[C@@H](NS(=O)(=O)N(C)C)CO3)CC2)C1 [Example 123, {[(3R,6S)-6-{[2-(5-{2-[(3R,5R)-3,5-Dimethylmorpholine-4-carbonyl]-4-fluorophenoxy}pyrimidin-4-yl)-2,7-diazaspiro[3.5]nonan-7-yl]methyl}oxan-3-yl]sulfamoyl}dimethylamine] | +++ (≥66%) | – | –
2 | CCNS(=O)(=O)N[C@@H]1CC[C@@H](CN2CCC3(CC2)CN(c2ncncc2Oc2ccc(F)cc2C(=O)N(C(C)C)C(C)C)C3)OC1 [Example 144, 2-((4-(7-(((2S,5R)-5-((N-Ethylsulfamoyl)amino)tetrahydro-2H-pyran-2-yl)methyl)-2,7-diazaspiro[3.5]nonan-2-yl)pyrimidin-5-yl)oxy)-5-fluoro-N,N-diisopropylbenzamide] | +++ (≥66%) | – | –
3 | CCNS(=O)(=O)N[C@@H]1CC[C@@H](CN2CCC3(CC2)CN(c2ncncc2Oc2ccc(F)cc2C(=O)N(CC(F)F)C(C)C)C3)OC1 [Example 147, N-(2,2-Difluoroethyl)-2-((4-(7-(((2S,5R)-5-((N-ethylsulfamoyl)amino)tetrahydro-2H-pyran-2-yl)methyl)-2,7-diazaspiro[3.5]nonan-2-yl)pyrimidin-5-yl)oxy)-5-fluoro-N-isopropylbenzamide] | +++ (≥66%) | +++ (≥66%) | –
4 | CCN(C(=O)c1cc(F)ccc1Oc1cncnc1N1CC2(CCN(C[C@@H]3CC[C@@H](NC(=O)NCC(F)(F)F)CO3)CC2)C1)C(C)C [Example 37, N-Ethyl-5-fluoro-N-isopropyl-2-((4-(7-(((2S,5R)-5-(3-(2,2,2-trifluoroethyl)ureido)tetrahydro-2H-pyran-2-yl)methyl)-2,7-diazaspiro[3.5]nonan-2-yl)pyrimidin-5-yl)oxy)benzamide] | + (<33%) | + (<33%) | –
5 | CCS(=O)(=O)N[C@@H]1CC[C@@H](CN2CCC3(CC2)CN(c2ncncc2Oc2ccc(F)cc2C(=O)N(C(C)C)[C@@H]2CC[C@@H]2O)C3)OC1 [Example 258, 2-((4-(7-(((2S,5R)-5-(Ethylsulfonamido)tetrahydro-2H-pyran-2-yl)methyl)-2,7-diazaspiro[3.5]nonan-2-yl)pyrimidin-5-yl)oxy)-5-fluoro-N-((1R,2S)-2-hydroxycyclobutyl)-N-isopropylbenzamide] | ++ (233% and ≤66%) | +++ (≥66%) | –
6 | CCNS(=O)(=O)N[C@@H]1CC[C@@H](CN2CCC3(CC2)CN(c2ncncc2Oc2ccc(F)cc2C(=O)N(C(C)C)C2CC2)C3)OC1 [Example 145, N-Cyclopropyl-2-((4-(7-(((2S,5R)-5-((N-ethylsulfamoyl)amino)tetrahydro-2H-pyran-2-yl)methyl)-2,7-diazaspiro[3.5]nonan-2-yl)pyrimidin-5-yl)oxy)-5-fluoro-N-isopropylbenzamide] | +++ (≥66%) | – | –
7 | CC(C)N(C(=O)c1cc(F)ccc1Oc1cncnc1N1CC2(CCN(C[C@@H]3CC[C@@H](NS(=O)(=O)N(C)C)CO3)CC2)C1)C1CC(F)(F)C1 [Example 113, N-(3,3-Difluorocyclobutyl)-2-((4-(7-(((2S,5R)-5-((N,N-dimethylsulfamoyl)amino)tetrahydro-2H-pyran-2-yl)methyl)-2,7-diazaspiro[3.5]nonan-2-yl)pyrimidin-5-yl)oxy)-5-fluoro-N-isopropylbenzamide] | ++ (233% and ≤66%) | +++ (≥66%) | –
8 | CCNS(=O)(=O)N[C@@H]1CC[C@@H](CN2CCC3(CC2)CN(c2ncncc2Oc2ccc(F)cc2C(=O)N(CC(F)(F)F)C(C)C)C3)OC1 [Example 153, 2-((4-(7-(((2S,5R)-5-((N-Ethylsulfamoyl)amino)tetrahydro-2H-pyran-2-yl)methyl)-2,7-diazaspiro[3.5]nonan-2-yl)pyrimidin-5-yl)oxy)-5-fluoro-N-isopropyl-N-(2,2,2-trifluoroethyl)benzamide] | +++ (≥66%) | – | –
9 | CC(C)N(CC(F)F)C(=O)c1cc(F)ccc1Oc1cncnc1N1CC2(CCN(C[C@@H]3CC[C@@H](NS(=O)(=O)N(C)C)CO3)CC2)C1 [Example 95, N-(2,2-Difluoroethyl)-2-((4-(7-(((2S,5R)-5-((N,N-dimethylsulfamoyl)amino)tetrahydro-2H-pyran-2-yl)methyl)-2,7-diazaspiro[3.5]nonan-2-yl)pyrimidin-5-yl)oxy)-5-fluoro-N-isopropylbenzamide] | ++ (233% and ≤66%) | +++ (≥66%) | + (<25 PM)
10 | CCNS(=O)(=O)N[C@@H]1CC[C@@H](CN2CCC3(CC2)CN(c2ncncc2Oc2ccc(F)cc2C(=O)N(C(C)C)C2CC(F)(F)C2)C3)OC1 [Example 155, N-(3,3-Difluorocyclobutyl)-2-((4-(7-(((2S,5R)-5-((N-ethylsulfamoyl)amino)tetrahydro-2H-pyran-2-yl)methyl)-2,7-diazaspiro[3.5]nonan-2-yl)pyrimidin-5-yl)oxy)-5-fluoro-N-isopropylbenzamide] | ++ (233% and ≤66%) | +++ (≥66%) | –
11 | CC(C)N(C(=O)c1cc(F)ccc1Oc1cncnc1N1CC2(CCN(C[C@@H]3CC[C@@H](NS(N)(=O)=O)CO3)CC2)C1)C(C)C [Example 90, 5-Fluoro-N,N-diisopropyl-2-((4-(7-(((2S,5R)-5-(sulfamoylamino)tetrahydro-2H-pyran-2-yl)methyl)-2,7-diazaspiro[3.5]nonan-2-yl)pyrimidin-5-yl)oxy)benzamide] | +++ (≥66%) | +++ (≥66%) | –
12 | CC(C)N(C(=O)c1cc(F)ccc1Oc1cncnc1N1CC2(CCN(C[C@@H]3CC[C@@H](NS(=O)(=O)C4CC4)CO3)CC2)C1)[C@@H]1CCOC1 [Example 164, 2-((4-(7-(((2S,5R)-5-(Cyclopropanesulfonamido)tetrahydro-2H-pyran-2-yl)methyl)-2,7-diazaspiro[3.5]nonan-2-yl)pyrimidin-5-yl)oxy)-5-fluoro-N-isopropyl-N-((R)-tetrahydrofuran-3-yl)benzamide] | +++ (≥66%) | +++ (≥66%) | –
13 | CC(C)N(C(=O)c1cc(F)ccc1Oc1cncnc1N1CC2(CCN(C[C@@H]3CC[C@@H](NS(=O)(=O)N(C)C(C)C)CO3)CC2)C1)C1CC(F)(F)C1 [Example 119, N-(3,3-Difluorocyclobutyl)-5-fluoro-N-isopropyl-2-((4-(7-(((2S,5R)-5-((N-isopropyl-N-methylsulfamoyl)amino)tetrahydro-2H-pyran-2-yl)methyl)-2,7-diazaspiro[3.5]nonan-2-yl)pyrimidin-5-yl)oxy)benzamide] | + (<33%) | – | –
14 | CCNS(=O)(=O)N[C@H]1CC[C@H](CN2CCC3(CC2)CN(c2ncnnc2Oc2ccc(F)cc2C(=O)N(CC(F)(F)F)C(C)C)C3)OC1 (stereo in doubt) [Example 193, 2-((5-(7-(((2R,5S)-5-((N-Ethylsulfamoyl)amino)tetrahydro-2H-pyran-2-yl)methyl)-2,7-diazaspiro[3.5]nonan-2-yl)-1,2,4-triazin-6-yl)oxy)-5-fluoro-N-isopropyl-N-(2,2,2-trifluoroethyl)benzamide] | +++ (≥66%) | – | –
15 | CCN(C(=O)c1cc(F)ccc1Oc1cncnc1N1CC2(CCN(C[C@@H]3CC[C@@H](NS(=O)(=O)c4cccc(OC)c4)CO3)CC2)C1)C(C)C [Example 66, N-Ethyl-5-fluoro-N-isopropyl-2-((4-(7-(((2S,5R)-5-((3-methoxyphenyl)sulfonamido)tetrahydro-2H-pyran-2-yl)methyl)-2,7-diazaspiro[3.5]nonan-2-yl)pyrimidin-5-yl)oxy)benzamide] | + (<33%) | + (<33%) | –
16 | CC(C)N(CC#N)C(=O)c1cc(F)ccc1Oc1cncnc1N1CC2(CCN(C[C@@H]3CC[C@@H](NS(=O)(=O)N4CCC4)CO3)CC2)C1 [Example 182, 2-((4-(7-(((2S,5R)-5-(Azetidine-1-sulfonamido)tetrahydro-2H-pyran-2-yl)methyl)-2,7-diazaspiro[3.5]nonan-2-yl)pyrimidin-5-yl)oxy)-N-(cyanomethyl)-5-fluoro-N-isopropylbenzamide] | +++ (≥66%) | – | –
17 | CCN(C(=O)c1cc(F)ccc1Oc1cncnc1N1CC2(CCN(C[C@@H]3CC[C@@H](NS(=O)(=O)N4CCC4)CO3)CC2)C1)C(C)C [Example 69, 2-((4-(7-(((2S,5R)-5-(Azetidine-1-sulfonamido)tetrahydro-2H-pyran-2-yl)methyl)-2,7-diazaspiro[3.5]nonan-2-yl)pyrimidin-5-yl)oxy)-N-ethyl-5-fluoro-N-isopropylbenzamide] | ++ (233% and ≤66%) | +++ (≥66%) | –
18 | CCNS(=O)(=O)N[C@@H]1CC[C@@H](CN2CCC3(CC2)CN(c2ncnnc2Oc2ccc(F)cc2C(=O)N(C(C)C)C(C)C)C3)OC1 [Example 198, 2-((5-(7-(((2S,5R)-5-((N-Ethylsulfamoyl)amino)tetrahydro-2H-pyran-2-yl)methyl)-2,7-diazaspiro[3.5]nonan-2-yl)-1,2,4-triazin-6-yl)oxy)-5-fluoro-N,N-diisopropylbenzamide] | +++ (≥66%) | – | –
19 | CCN(C(=O)c1cc(F)ccc1Oc1cncnc1N1CC2(CCN(C[C@@H]3CC[C@@H](NC(=O)OC(C)(C)C)CO3)CC2)C1)C(C)C [Example 11, tert-Butyl ((3R,6S)-6-((2-(5-(2-(ethyl(isopropyl)carbamoyl)-4-fluorophenoxy)pyrimidin-4-yl)-2,7-diazaspiro[3.5]nonan-7-yl)methyl)tetrahydro-2H-pyran-3-yl)carbamate] | + (<33%) | + (<33%) | –
20 | Cc1nc(S(=O)(=O)N[C@@H]2CC[C@@H](CN3CCC4(CC3)CN(c3ncncc3Oc3ccc(F)cc3C(=O)N3[C@H](C)COC[C@H]3C)C4)OC2)cs1 [Example 122, N-((3R,6S)-6-((2-(5-(2-((3R,5R)-3,5-Dimethylmorpholine-4-carbonyl)-4-fluorophenoxy)pyrimidin-4-yl)-2,7-diazaspiro[3.5]nonan-7-yl)methyl)tetrahydro-2H-pyran-3-yl)-2-methylthiazole-4-sulfonamide] | +++ (≥66%) | – | –
